Like-named read-outs stand apart in the source and are kept apart here.
Key:
[1] = test system: patients with Pyruvate Dehydrogenase Complex Deficiency (PDCD); assay: Phase III double-blind, placebo-controlled crossover study with open label period: ObsROmotor, GHA, seizures, observer survey; type: in vivo, human
Method: (§1) A double-blind period (Phase A) and an open label period (Phase B) was performed in patients 6 months through 17 years of age with Pyruvate Dehydrogenase Complex Deficiency (PDCD) (n=34). Patients receiving DCA were dose-stratified according to GSTZ1 genotype. DCA was dosed orally (oral, nasogastric tube, or gastric tube route) at either 12.5 mg/kg (fast metabolizers) or 6.25 mg/kg (slow metabolizers), every 12 hours. Twenty-seven (27) of 34 patients (79%), were fast metabolizers.
The drug product is a clear, colorless solution.
The primary efficacy outcome was assessed using an observer reported outcome that measures motor function, referred to as the ObsROmotor. The ObsROmotor is a daily observer reported survey that assesses weakness, incoordination, hypotonia (low muscle tone), hypertonia (rigidity, stiff muscle tone), and involuntary movements. Each domain was scored from 0 to 4, where 0 is no presence of the symptom, 1 is mild, 2 is moderate, 3 is severe and 4 extreme, with a total score ranging from 0 to 20.
PDCD is a heterogenous disease with neurologic, metabolic and structural abnormalities. An observer rated Global Health Assessment (GHA) was also used to assess the overall health of the patient in addition to ObsROmotor. GHA was measured each week to assess the prior 7 days using a 5-point scale (much better, better, no change, worse, much worse). GHA scores improved over time and the scores were correlated with ObsROmotor.

GSTZ1 haplotype carriers = conditions: cited from earlier work
[2] = test system: patients with Pyruvate Dehydrogenase Complex Deficiency (PDCD); assay: Plasma BHB (ketone) levels in Phase III study of DCA in PDCD patients; type: in vivo, human
Method: (§2) A total of 30 (of the 34) patients in the Phase III study in PDCD patients had lab values that could be evaluated throughout the study. Of these 30, 24 were defined to be adherent to a ketogenic diet based on their BHB level at baseline to be >0.3 mM.
as §1, with “metabolizers. […]” for “metabolizers.”

[3] = test system: pediatric patients with PDCD; assay: Adverse reaction data of Phase III study and open-label extension; type: in vivo, human
Method: In the Phase III study, the safety of DCA was assessed in 34 pediatric patients with PDCD aged 6 months to 17 years. Patients receiving DCA were dose-stratified post-randomization according to GSTZ1 genotype to mitigate risk of peripheral neuropathy. DCA was dosed at either 12.5 mg/kg or 6.25 mg/kg divided into two equal doses approximately 12 hours apart. The dose based on GSTZ1 genotyping was done at baseline before patients initiated therapy. As noted above, this Phase III controlled study was followed by an ongoing, open-label extension study, used to assess long term safety and survival outcomes.
In the open-label extension study, patients were treated for up to 3 years (median: 1.4 years) with DCA. The adverse events observed during the open-label phase of the study were similar to those observed in the double-blind portion of the study. During the open label portion of the trial there was a report of mild peripheral neuropathy in one patient who later withdrew from the study for a family relocation. This occurred after 18 months and was considered possibly drug related. DCA induced peripheral neuropathy has been identified as reversible upon therapy discontinuation.

[4] = test system: pediatric patients with PDCD; assay: Survival study of DCA-treated patients versus untreated natural history cohort; type: in vivo, human; conditions: primary endpoint, matched on age and sex; n=28 vs n=28; p=0.0273
Method: Efficacy was assessed in a second study by comparing overall survival in pediatric patients with PDCD treated with DCA (n=28) with an untreated natural history cohort of pediatric patients with genetically confirmed PDCD (n=28).

[5] = test system: patients with Pyruvate Dehydrogenase Complex Deficiency (PDCD); assay: Plasma lactate levels in Phase III study of DCA in PDCD patients; type: in vivo, human
Method: as §2
as §1, with “metabolizers. […]” for “metabolizers.”
Plasma lactate levels were evaluated as a key biomarker in PDCD. Lactate is a universal marker of disease activity in PDCD, and its elevation is a direct result of the fundamental metabolic deficit. Patients with PDCD have chronically elevated levels of lactate due to decreased PDC activity. Lowering of plasma lactate with use of DCA is considered a biomarker of its activation of PDC.

[6] = severe patients (N=15), domain outside of motor function
[7] = Patient 01-001, DCA Open Label 1, keto ratio 4.0:1
[8] = Patient 01-001, DCA Open Label 2, keto ratio 4.0:1
[9] = Patient 01-001, DCA Open Label 3, keto ratio 4.0:1
[10] = Patient 01-001, DCA period, keto ratio 3.1:1
[11] = Patient 03-001, DCA Open Label 1, keto ratio Not Recorded
[12] = Patient 03-001, DCA Open Label 2, keto ratio 3.2:1
[13] = Patient 03-001, DCA Open Label 3, keto ratio 3.1:1
[14] = Patient 03-001, DCA period, keto ratio 4.0:1
[15] = Patient 07-003-S, DCA Open Label 1, keto ratio 0.7:1
[16] = Patient 07-003-S, DCA period, keto ratio 3.0:1
[17] = of the 24 patients adherent to the ketogenic diet
[18] = Phase III, all patients, p=0.006

O=C(O)C(Cl)Cl [DCA, Dichloroacetate]
patients maintaining stable disease or achieving clinically meaningful improvement (>20% reduction in ObsROmotor) ([1]; open label extension, of 34 patients): 24 | survey respondents noting improvement in cognition, verbal communication, mobility, and/or endurance ([1]; open-label office visits, 25 of the 26 respondents): 96.2% | observers rating patients with a GHA as better or much better ([1]; open-label portion): > 80% | patients showing improvement in motor function in at least one of the five domains ([1]; patients with more severe impairment at baseline (N=15)): 93% | improvement of motor function in the ObsROmotor scale vs. placebo ([1]; patients with more severe impairment at baseline (N=15), p=0.066): −1.12 | number of severe patients improving: hypertonia ([1]; severe patients (N=15)): 6 | number of severe patients improving: hypotonia ([1]; severe patients (N=15)): 8 | number of severe patients improving: incoordination ([1]; severe patients (N=15)): 6 | number of severe patients improving: involuntary movement ([1]; severe patients (N=15)): 6 | number of severe patients improving: weakness ([1]; severe patients (N=15)): 6 | number of severe patients improving: fatigue [1, 6]: 7 | number of severe patients improving: sleep [1, 6]: 8 | risk of peripheral neuropathy adverse events (GSTZ1 haplotype carriers; EGT carriers (fast metabolizers), 25 mg/kg/day): low risk | risk of peripheral neuropathy adverse events (GSTZ1 haplotype carriers; EGT non-carriers (slow metabolizers), 12.5 mg/kg/day): experience the same | average BHB level while on DCA ([2]; 9 patients without BHB increase, 2.04 mM not on DCA): 1.8 mM | measures that exceeded 3.0 mM BHB while on DCA ([2]; 9 patients without BHB increase, 38% not on DCA): 24% | average BHB level while on DCA ([2]; 15 patients that experienced an increase, 2.19 mM not on DCA): 3.27 mM | measurements with clinically significant BHB (>3.0 mM) while on DCA ([2]; 15 patients that experienced an increase, 13% not on DCA): 62% | increase in average BHB level ([2]; 15 patients that experienced an increase, on DCA vs not on DCA): 49% | BHB [2, 7]: 3.19 mM | BHB [2, 8]: 2.74 mM | BHB [2, 9]: 4.08 mM | BHB [2, 10]: 6.36 mM | BHB [2, 11]: 4.41 mM | BHB [2, 12]: 2.76 mM | BHB [2, 13]: 2.06 mM | BHB [2, 14]: 4.21 mM | BHB [2, 15]: 2.38 mM | BHB [2, 16]: 4.02 mM | increase in the number of patients with BHB levels of 3.0 mM or higher ([2]; group experiencing increases in BHB): ~5 fold | BHB levels greater than 4.0 while on DCA ([2]; group experiencing increases in BHB, 3% while not on DCA): 28% | patients that did not experience a rise in ketone levels after administration of DCA [2, 17]: Nine | patients with a rise in ketone levels after administration of DCA [2, 17]: 15 | Balance disorder ([3]; DCA (N = 34)): 1 (2.9) n (%) | Bruxism ([3]; DCA (N = 34)): 0 n (%) | Constipation ([3]; DCA (N = 34)): 1 (2.9) n (%) | Diarrhea ([3]; DCA (N = 34)): 1 (2.9) n (%) | Fatigue ([3]; DCA (N = 34)): 1 (2.9) n (%) | Flatulence ([3]; DCA (N = 34)): 0 n (%) | Gastrointestinal disorders (SOC) ([3]; DCA (N = 34)): 2 (5.9) n (%) | General disorders and administration site conditions (SOC) ([3]; DCA (N = 34)): 1 (2.9) n (%) | Insomnia ([3]; DCA (N = 34)): 0 n (%) | Irritability ([3]; DCA (N = 34)): 0 n (%) | Muscular weakness ([3]; DCA (N = 34)): 1 (2.9) n (%) | Musculoskeletal and connective tissue disorders (SOC) ([3]; DCA (N = 34)): 1 (2.9) n (%) | Nervous system disorders (SOC) ([3]; DCA (N = 34)): 1 (2.9) n (%) | Psychiatric disorders (SOC) ([3]; DCA (N = 34)): 0 n (%) | Salivary hypersecretion ([3]; DCA (N = 34)): 0 n (%) | Skin and subcutaneous tissue disorders (SOC) ([3]; DCA (N = 34)): 1 (2.9) n (%) | Syncope ([3]; DCA (N = 34)): 1 (2.9) n (%) | Tremor ([3]; DCA (N = 34)): 1 (2.9) n (%) | Urticaria ([3]; DCA (N = 34)): 1 (2.9) n (%) | deaths ([3]; Phase III, 34 pediatric patients): no deaths | most commonly reported adverse reaction: gastrointestinal disorders ([3]; n=2 of 34 DCA-treated patients): 5.9% | patients with report of mild peripheral neuropathy ([3]; open label portion, after 18 months, considered possibly drug related): one | multivariate risk reduction in the relative risk of death vs untreated patients [4]: 99% | drop in lactate ([5]; 9 patients without BHB increase): 11% | percentage of patients with normal lactate levels (2.0 mM or less) while on DCA ([5]; 9 patients without BHB increase, 51% not on DCA): 71% | drop in lactate levels while on DCA ([5]; 15 patients with BHB increase): 20% | percentage of patients with normal lactate levels (2.0 mM or less) while on DCA ([5]; 15 patients with BHB increase, 33% not on DCA): 73% | Lactate [5, 7]: 1.58 mM | Lactate [5, 8]: 2.13 mM | Lactate [5, 9]: 1.33 mM | Lactate [5, 10]: 1.4 mM | Lactate [5, 11]: 1.36 mM | Lactate [5, 12]: 1.16 mM | Lactate [5, 13]: 1.41 mM | Lactate [5, 14]: 1.25 mM | Lactate [5, 15]: 0.68 mM | Lactate [5, 16]: 1.99 mM | difference in plasma lactate, DCA vs. placebo [5, 18]: -0.477 mM | reduction in plasma lactate levels, DCA vs. placebo [5, 18]: 21% | patients achieving lactate normalization while on DCA therapy ([5]; in both groups (with and without BHB increase)): > 70% | patients on DCA achieving normal levels (≤2mmol/L) of lactate ([5]; vs. 42% on placebo, P=0.0114): 66%
